Tests used:
Na+/K+ ATPase = assay: liver slice GABA release with Na+/K+ ATPase inhibitor; assay type: cell-based, mouse; conditions: 1 mM, bath application
Source text: Two liver slices were taken from each mouse.

[1] = system: PSEM89S ligand-gated depolarizing channel; assay: PSEM89S ligand IP in mice with cre-dependent hepatic depolarizing channel: serum insulin, glucose; assay type: in vivo, mouse; conditions: 30 mg/kg IP
Source text: (§1) The depolarizing channel (PSAM^L141F,Y115F-5 HT3HC), originally engineered by Dr. Scott Sternsons group, was made by mutating the acetylcholine binding domain of a chimeric channel that included the binding domain of the α7 nicotinic acetylcholine receptor and the ion pore domain of the serotonin receptor 3a. The ligand binding domain mutations (Leu^141→Phe and Tyr^115→Phe) limited the agonist action of acetylcholine and allowed for stimulation by a pharmacologically selective effector molecule PSEM89S. The exogenous ligand PSEM89S opens the serotonin receptor 3a channel allowing Na^+, K^+, and Ca^++ passage into the cell and membrane depolarization. AAV8 viral vectors were used for plasmid delivery in all the reported studies and were synthesized by the Penn Vector Core. Hepatic specific expression of the depolarizing channel was achieved through two different methods. First, expression of a cre-recombinase dependent depolarizing channel was driven by a globally expressed CAG promoter. LoxP sites limited expression to cre-recombinase expressing tissue, and tail vein injection of 1×10^10 viral genome copies established hepatocyte expression in albumin-cre but not wildtype mice. Second, a separate AAV8 viral vector, induced hepatic specific expression of the same depolarizing channel by driving expression using the thyroxine binding globulin (TBG) promoter. Tail vein injection of 1×10^11 viral genome copies established hepatocyte expression (FIG. 18C). The thyroxine binding globulin promoter also drove hepatic expression of the hyperpolarizing, inward-rectifier K^+ channel, Kir2.1. Tail vein injection of 1×10^11 viral genome copies established hepatocyte specific expression (FIG. 19A). To confirm channel expression and tissue specificity, all viral vector plasmids encoded for enhanced green fluorescent protein (eGFP).
All studies in virus injected mice were conducted at least 5 days post virus injection to allow for maximal channel expression. Individually housed mice were intraperitoneally injected with the ligand for the depolarizing channel (PSEM89S; 30 mg/kg; 0.1 mL/10 g body weight) or PBS (0.1 mL/10 g body weight).
Studies conducted in mice injected with the cre-dependent depolarizing channel virus took place at 8 am. […]
(§2) Within 2 hours of collection, blood was left to clot at room temperature for 20 minutes. […] Serum glucose was analyzed by colorimetric assay (Cat. #G7519, Pointe Scientific Inc., Canton Mich.). Serum insulin was analyzed by enzyme-linked immunosorbent assay (ELISA; Cat. #80-INSMSU-E01,E10, Alpco, Salem, N.H.). Serum glucagon was analyzed by enzyme-linked immunosorbent assay (ELISA; Cat. #10-1281-01, Mercodia, Uppsala, Sweden) from tail vein blood collected at 9 am from fed mice (Vagotomy study) or after a 4 hour fast at 1 PM (Kir2.1 study).

[2] = system: PSEM89S ligand-gated depolarizing channel; assay: PSEM89S ligand IP before oral glucose in mice with TBG promoter driven depolarizing channel; assay type: in vivo, mouse; conditions: TBG channel expressing mice
Source text: as §1, with “The thyroxine binding globulin promoter also drove hepatic expression of the hyperpolarizing, inward-rectifier K^+ channel, Kir2.1. Tail vein injection of 1×10^11 viral genome copies established hepatocyte specific expression (FIG. 19A). To confirm channel expression and tissue specificity, all viral vector plasmids encoded for enhanced green fluorescent protein (eGFP).” left out
as §2

[3] = system: PSEM89S ligand-gated depolarizing channel; assay type: in vivo, mouse
Source text: as §1, with “Tail vein injection of 1×10^11 viral genome copies established hepatocyte specific expression (FIG. 19A). To confirm channel expression and tissue specificity, all viral vector plasmids encoded for enhanced green fluorescent protein (eGFP).” left out
Simultaneous in vivo recordings were performed of hepatocyte membrane potential and hepatic afferent vagal nerve firing activity in anesthetized (isoflurane) mice to directly assess the effect of hepatocyte depolarization on hepatic afferent vagal nerve activity. […] After placement and sealing of the hook electrode, 45-60 minutes of basal nerve activity was monitored/recorded with pClamp software (version 10.2; Molecular Devices) until nerve activity stabilized, after which, treatments began. […]

[4] = system: lean mice and obese control or GABA-T ASO treated mice; assay: leptin sensitivity (single 6 am leptin injection): food intake, body weight; assay type: in vivo, mouse
Procedure: Lean mice or diet-induced obese control or GABA-T targeted ASO treated mice received an intraperitoneal injection of phosphate buffered saline (PBS; 0.1 mL/10 g body weight) on day 1 and leptin (2 mg/kg; 0.1 mL/10 g body weight; CAT#498-OB, R&D Systems, Minneapolis, Minn.) on day 2 at 6 am. Mice were not fasted before injections. Food and body weight were measured every day at 6 am and 6 pm.

[5] = system: high fat diet-induced obese mice; assay: GABA-T inhibitors (8 mg/day IP) in HFD-induced obese mice: body weight, serum insulin/glucose/glucagon, OGTT, ITT; assay type: in vivo, mouse
Procedure: (§3) All animal studies were conducted using male wildtype C57BL/6J mice purchased from Jackson Laboratories or bred in-house (Bar Harbor, Me.). Mice were kept on a 14-hour light/10-hour dark schedule and housed 3-5 mice per cage until 1 week prior to study initiation, at which point animals were individually housed. Studies were conducted in lean chow fed mice (7013 NIH-31, Teklad WI, 3.1 kcal/g, 18% kcal from fat, 59% kcal from carbohydrate, 23% kcal from protein) at 12-16 weeks of age. Studies in diet-induced obese mice dosed intraperitoneally with GABA transaminase inhibitors, mice treated with ethanolamine-O-sulfate in their drinking water, and mice treated with GABA-T targeted or scramble control antisense oligonucleotides (ASO) were performed after 8-10 weeks on a high fat diet (TD 06414, Teklad WI, 5.1 kcal/g, 60.3% kcal from fat, 21.3% kcal from carbohydrate, 18.4% kcal from protein; 20-26 weeks of age). For ASO studies, mice were stratified by body weight and assigned to an injection treatment (control or GABA-T). Studies in obese vagotomy and sham mice were performed after 9 weeks of high fat diet feeding. Unless fasted, mice had ad libitum access to food and water. All studies were approved by The University of Arizona Institutional Animal Care and Use Committee.
(§4) Wildtype lean and obese mice were randomly divided into treatment groups and dosed daily with 8 mg of ethanolamine-O-sulfate (EOS; Sigma-Aldrich, St. Louis, Mo.), vigabatrin (United States Pharmacopeia, Rockville, Md.) or PBS. Obese sham and vagotomy mice were dosed daily with 8 mg of EOS. In all cases, basal bleeds were taken prior to initiation of an ITT. Lean mice received treatment by oral gavage (0.3 mL/mouse) while obese mice were treated by intraperitoneal injection (0.3 mL/mouse). Pre-treatment studies were conducted in the week immediately prior to beginning drug administration. Daily doses took place at 9 am each day and oral glucose tolerance tests (OGTT) and insulin tolerance tests (ITT) were performed on the third and fourth days of treatment in lean mice, respectively. In wildtype obese mice, OGTT and ITT were performed on the fourth day of treatment in separate cohorts. On the fifth day of treatment, 2DG clearance studies were performed. In sham/vagotomy mice, OGTT and ITT were performed on the fourth and fifth day of treatment, respectively. After a 2-week washout period without treatment injection, a basal bleed and bleed 15 minutes after an oral glucose gavage ([…]) to determine oral glucose stimulated insulin secretion were performed.
(§5) Oral glucose (2.5 g/kg; 0.1 mL/10 g body weight; Chem-Impex Int'l Inc., Wood Dale, Ill.) was given to 4 hour fasted individually housed mice. All glucose tolerance tests began at […] and glucose was measured in whole blood, collected from the tail vein, by glucometer (Manufacture #D2ASCCONKIT, Bayer, Leverkusen, Germany) at 0, 15, 30, 60, 90, and 120 minutes after glucose gavage. Blood for serum insulin (oral glucose stimulated insulin secretion; OGSIS) and glucose determination was collected from the tail vein 15 minutes following glucose administration.
(§6) Intraperitoneal insulin (0.5 U/kg; 0.1 mL/10 g body weight; Sigma Aldrich, St. Louis, Mo.) was given to 4 hour fasted individually housed mice. All insulin tolerance tests began at […] and glucose was measured in whole blood, collected from the tail vein, by glucometer (Manufacture #D2ASCCONKIT, Bayer, Leverkusen, Germany) at 0, 30, 60, 90, and 120 minutes after insulin injection.
(§7) Within 2 hours of collection, blood was left to clot at room temperature for 20 minutes. Thereafter, the blood was centrifuged at 3,000×g for 30 minutes at 4° C. and serum was collected. Serum was stored at −80° C. until metabolite and hormone analyses. A colorimetric assay was used to analyze serum glucose (Cat. #G7519, Pointe Scientific Inc., Canton Mich.). Serum insulin was analyzed by enzyme-linked immunosorbent assay (ELISA; Cat. #80-INSMSU-E01,E10, Alpco, Salem, N.H.). […]

lean mice = assay: GABA-T inhibitors (8 mg/day oral gavage) in lean mice: glucose homeostasis; assay type: in vivo, mouse; conditions: 8 mg/day
Procedure: as §3, §4, §5, §6, §7

Kir2.1 = molecular target: T1, Kir2.1 (Homo sapiens, UniProt P63252); assay: Barium induced change in hepatocyte membrane potential in Kir2.1 and eGFP expressing mice; assay type: in vivo, mouse; conditions: 50 μM bath application
T1 construct: host or cells: hepatocytes of wildtype mice in vivo, AAV8 with TBG promoter
T1 sequence (P63252 1-427): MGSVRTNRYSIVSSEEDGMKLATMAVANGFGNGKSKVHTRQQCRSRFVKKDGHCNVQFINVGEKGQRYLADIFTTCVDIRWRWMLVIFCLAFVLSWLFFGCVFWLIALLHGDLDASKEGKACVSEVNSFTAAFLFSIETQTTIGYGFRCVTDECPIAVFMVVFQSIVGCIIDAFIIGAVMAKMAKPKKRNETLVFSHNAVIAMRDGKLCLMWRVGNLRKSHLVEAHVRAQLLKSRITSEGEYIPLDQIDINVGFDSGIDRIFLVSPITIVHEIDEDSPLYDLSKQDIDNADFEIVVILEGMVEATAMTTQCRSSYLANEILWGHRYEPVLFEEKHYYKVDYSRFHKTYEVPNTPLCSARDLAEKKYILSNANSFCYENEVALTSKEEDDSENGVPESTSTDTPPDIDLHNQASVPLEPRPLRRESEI

[6] = albumin-cre channel expressing mice
[7] = 30 mg/kg IP 10 minutes before oral glucose 2.5 g/kg
[8] = chow fed mice, single 6AM injection
[9] = 8 mg/day IP, four days, relative to pre-treatment

C[C@@H]1O[C@@H](O[C@H]2C[C@@H](O)[C@]3(CO)[C@H]4[C@H](O)C[C@]5(C)[C@@H](C6=CC(=O)OC6)CC[C@]5(O)[C@@H]4CC[C@]3(O)C2)[C@H](O)[C@H](O)[C@H]1O [Ouabain]
increase of liver slice GABA release (μmol/mg DNA) (Na+/K+ ATPase): more than 40%

COc1ccc(OC)c(C(=O)N[C@@H]2CN3CCC2CC3)c1.O=C(O)C(F)(F)F [PSEM89S ligand]
serum glucose [1, 6]: decreased
serum insulin [1, 6]: more than doubled
glucose:insulin ratio ([1]; albumin-cre mice): decreased
serum insulin, glucose, or glucose:insulin ratio ([1]; wildtype mice): did not alter
glucose:insulin ratio [2, 7]: lowered
serum insulin [2, 7]: elevated
rise in serum glucose following oral glucose gavage ([2]; 30 mg/kg IP): did not affect
HVAN firing activity ([3]; 30 μM bath application, albumin-cre channel expressing mice): decreased
hepatocyte depolarization at 10 minutes ([3]; mouse, in vivo): 17.0±5.4 mV
maximal hepatocyte depolarization ([3]; mouse, in vivo): 28±5.4 mV

leptin: anorexigenic hormone leptin (R&D Systems)
body weight [4, 8]: without affecting
light cycle and 24-hour food intake [4, 8]: decreased
relative weight change ([4]; control or GABA-T ASO obese mice, 2 mg/kg): not affected
food intake ([4]; obese mice on either ASO treatment, 2 mg/kg single 6AM injection, any timepoint): did not affect

C=CC(N)CCC(=O)O (stereo not shown) [vigabatrin]
glucose:insulin ratio [5, 9]: increased
serum glucose [5, 9]: decreased
serum insulin [5, 9]: decreased
body weight ([5]; 8 mg/day IP, through 5 days, vs saline injected mice): remained similar
glucose stimulated serum insulin ([5]; treatment day 4, relative to pre-treatment): decreased
glucose stimulated serum insulin after washout ([5]; two-weeks washout): markedly increased
serum insulin and glucose:insulin ratio after washout ([5]; two-weeks washout): return of serum insulin and the glucose:insulin ratio to pre-treatment levels
insulin sensitivity assessed by insulin tolerance test (ITT) ([5]; within 4 days of initiating treatment): improved
glucose tolerance (lean mice): no effect
insulin sensitivity (lean mice): no effect
serum insulin concentrations (lean mice): no effect

[Ba+2] [Ba2+, Barium]
depolarization of hepatocytes (Kir2.1; Kir2.1 expressing mice): 6.86±1.54 mV
change in hepatocyte membrane potential (Kir2.1; control eGFP expressing mice): −0.62±1.86 mV
